Measured values as given in PMC5406460 (Frontiers in Microbiology, 2017).
Values after ≈ are worked out from the molar mass of the structure shown. Non-standard residues stand in square brackets, D forms with d. Residues, ends and D or L forms follow the SMILES beside them. ξ: configuration not given here. *: point of attachment. ξF = NC(Cc1ccccc1)C(=O)O; Cbz = O=C(OCc1ccccc1)*; CH2Cl = ClC*

Tests used:
[1] = test system: M. bovis BCG; test: organism not typed; format: cell-based; conditions: 120 h, read-out: M. bovis MIC50
[2] = target: bacterial proteasome (Mycobacterium bovis, UniProt A1KKF3); test: cell-based; parameters: species or system M. bovis BCG
[3] = target: human proteasome (Homo sapiens, UniProt P28074); test: cell-based
[4] = test system: M. tuberculosis H37Rv; test: Turbidity-based growth inhibition (MIC50), M. tuberculosis H37Rv; format: cell-based; conditions: Mycobacterium tuberculosis, 120 h, 50% growth inhibition, 5 days, OD600
[5] = test system: M. tuberculosis H37Rv; test: Minimum bactericidal concentration (MBC99) by CFU enumeration; format: cell-based; conditions: for MBC: Mycobacterium tuberculosis, H37RV, 120 h, concentration killing 99% of bacteria (100-fold kill), 5 days treatment
[6] = target: ClpP1P2 (Mycobacterium bovis, UniProt P0A527+P63784); test: cell-based; format: cell-based, M. bovis BCG; conditions: for IC50: 24 h, read-out: Bacterial Clp IC50
[7] = in vitro; conditions: human

bacterial proteasome, sequence (A1KKF3 whole entry, looked up): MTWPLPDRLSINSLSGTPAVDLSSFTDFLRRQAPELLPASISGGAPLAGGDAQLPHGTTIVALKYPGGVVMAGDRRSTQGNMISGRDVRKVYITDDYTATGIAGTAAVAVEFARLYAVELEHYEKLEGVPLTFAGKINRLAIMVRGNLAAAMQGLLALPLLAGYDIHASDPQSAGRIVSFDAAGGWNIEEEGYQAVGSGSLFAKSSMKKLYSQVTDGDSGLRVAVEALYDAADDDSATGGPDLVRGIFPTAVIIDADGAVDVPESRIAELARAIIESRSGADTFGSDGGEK

| Structure (SMILES) | MIC50 [1] | IC50 [2] | IC50 [3] | MIC50 [4] | MBC [5] | IC50 [6] | selectivity ratio [7] | reduction in bactericidal potency against M. tuberculosis ([5]; compared to Bortezomib (MBC99)) | loss of potency against ClpP1P2 compared to Bortezomib ([6]; 25 vs. 1.6 μM) |
| --- | --- | --- | --- | --- | --- | --- | --- | --- | --- |
| CC(C)C[C@H](NC(=O)CNC(=O)OCc1ccccc1)C(=O)NC(Cc1ccccc1)C(=O)CCl (stereo partly drawn) [Z-GLF-CMK, Carboxybenzyl-glycine-leucine-phenylalanine-CMK] (Cbz-Gly-Leu-[ξF]-CH2Cl) | 20 µM (≈ 10 µg/mL) | 35 µM | > 500 µM | 20 µM (≈ 10 µg/mL) | 200 µM (≈ 100 µg/mL) | 25 µM | – | – | – |
| O=C(CNC(=O)OCc1ccccc1)NCC(=O)NC(Cc1ccccc1)C(=O)CCl (stereo not drawn) [Z-GGF-CMK, Carboxybenzyl-glycine-glycine-phenylalanine-CMK] (Cbz-Gly-Gly-[ξF]-CH2Cl) | 30 µM (≈ 13.4 µg/mL) | 50 µM | > 500 µM | 30 µM (≈ 13.4 µg/mL) | – | 50 µM | – | – | – |
| CC(C)C[C@H](NC(=O)[C@H](Cc1ccccc1)NC(=O)c1cnccn1)C(=O)CCl [Pyr-FL-CMK, N-((S)-1-(((S)-1-chloro-5-methyl-2-oxohexan-3-yl)amino)-1-oxo-3-phenylpropan-2-yl)pyrazine-2-carboxamide] | 20 µM (≈ 8.34 µg/mL) | 25 µM | > 500 µM | 25 µM (≈ 10.4 µg/mL) | 100 µM (≈ 41.7 µg/mL) | 25 µM | ≥ 20 | two-fold | ~15 fold |
| CC(C)C[C@H](NC(=O)[C@H](Cc1ccccc1)NC(=O)c1cnccn1)B(O)O [Pyr-FL-BA, Pyrazine-Phenylalanine-Leucine-Boronic acid] | 0.8 µM (≈ 0.307 µg/mL) | 0.8 µM | – | 4 µM (≈ 1.54 µg/mL) | 50 µM (≈ 19.2 µg/mL) | 1.6 µM | – | – | – |
